“Also recorded” adds a separate entry of the source. Marks after values point to notes of the source that are not given here.
Assays:
NK2 = NK2 (Homo sapiens, UniProt P21452); assay: Neurokinin receptor NK2 binding; details: [^125I]NKA, Human recombinant CHO cells, read-out: CR6086 Activity at 10µM
NTS1 (NT1) = NTS1 (NT1) (Homo sapiens, UniProt P30989); assay: NTS1 receptor binding; details: [^125I]Tyr^3-neurotensin, Human recombinant CHO cells, read-out: CR6086 Activity at 10µM
CysLT2 (Cys-LTs) = CysLT2 (Cys-LTs) (Homo sapiens, UniProt Q9NS75); assay: Eicosanoid receptor CysLT2 binding; details: [^3H]LTD4, HEK-293 cells, read-out: CR6086 Activity at 10µM
Sequence of CysLT2 (Cys-LTs) (Q9NS75 whole entry, species assumed): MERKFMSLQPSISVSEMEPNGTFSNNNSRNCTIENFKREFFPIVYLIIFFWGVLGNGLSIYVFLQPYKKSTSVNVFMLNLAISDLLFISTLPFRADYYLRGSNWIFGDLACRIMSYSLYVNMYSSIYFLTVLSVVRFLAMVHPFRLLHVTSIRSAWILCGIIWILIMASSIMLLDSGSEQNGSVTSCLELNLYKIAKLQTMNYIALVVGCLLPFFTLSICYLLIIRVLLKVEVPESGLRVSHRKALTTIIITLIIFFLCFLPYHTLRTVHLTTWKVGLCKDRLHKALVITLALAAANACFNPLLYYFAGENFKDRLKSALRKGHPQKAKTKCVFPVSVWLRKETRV

D3 = D3 (Homo sapiens, UniProt P35462); assay: Dopamine receptor D3 binding; details: [^3H]methyl-spiperone, Human recombinant CHO cells, read-out: CR6086 Activity at 10µM
Sequence of D3 (P35462 whole entry): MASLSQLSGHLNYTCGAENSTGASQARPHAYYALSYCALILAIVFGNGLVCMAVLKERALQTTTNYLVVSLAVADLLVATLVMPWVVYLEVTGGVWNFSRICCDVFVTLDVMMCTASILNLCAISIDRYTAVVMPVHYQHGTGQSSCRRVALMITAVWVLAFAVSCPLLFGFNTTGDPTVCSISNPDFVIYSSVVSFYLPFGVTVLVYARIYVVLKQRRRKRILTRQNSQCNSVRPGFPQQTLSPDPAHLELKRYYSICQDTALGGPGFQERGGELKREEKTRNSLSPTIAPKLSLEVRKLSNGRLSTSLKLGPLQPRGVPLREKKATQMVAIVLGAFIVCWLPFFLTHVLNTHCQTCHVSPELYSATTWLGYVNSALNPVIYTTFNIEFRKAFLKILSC

[1] = test system: arthritic mice (collagen-induced arthritis model); assay: CIA in mice, third study (CR6086, MTX, combination): clinical score, oedema, histology; type: in vivo, mouse; details: for CLINICAL SCORE (interquartile range): 30 mg/kg CR6086, median (IQR)
GR = GR (Homo sapiens, UniProt P04150); assay: Nuclear receptor GR binding; details: [^3H]dexamethasone, IM-9 cells (cytosol), read-out: CR6086 Activity at 10µM
Sequence of GR (P04150 whole entry): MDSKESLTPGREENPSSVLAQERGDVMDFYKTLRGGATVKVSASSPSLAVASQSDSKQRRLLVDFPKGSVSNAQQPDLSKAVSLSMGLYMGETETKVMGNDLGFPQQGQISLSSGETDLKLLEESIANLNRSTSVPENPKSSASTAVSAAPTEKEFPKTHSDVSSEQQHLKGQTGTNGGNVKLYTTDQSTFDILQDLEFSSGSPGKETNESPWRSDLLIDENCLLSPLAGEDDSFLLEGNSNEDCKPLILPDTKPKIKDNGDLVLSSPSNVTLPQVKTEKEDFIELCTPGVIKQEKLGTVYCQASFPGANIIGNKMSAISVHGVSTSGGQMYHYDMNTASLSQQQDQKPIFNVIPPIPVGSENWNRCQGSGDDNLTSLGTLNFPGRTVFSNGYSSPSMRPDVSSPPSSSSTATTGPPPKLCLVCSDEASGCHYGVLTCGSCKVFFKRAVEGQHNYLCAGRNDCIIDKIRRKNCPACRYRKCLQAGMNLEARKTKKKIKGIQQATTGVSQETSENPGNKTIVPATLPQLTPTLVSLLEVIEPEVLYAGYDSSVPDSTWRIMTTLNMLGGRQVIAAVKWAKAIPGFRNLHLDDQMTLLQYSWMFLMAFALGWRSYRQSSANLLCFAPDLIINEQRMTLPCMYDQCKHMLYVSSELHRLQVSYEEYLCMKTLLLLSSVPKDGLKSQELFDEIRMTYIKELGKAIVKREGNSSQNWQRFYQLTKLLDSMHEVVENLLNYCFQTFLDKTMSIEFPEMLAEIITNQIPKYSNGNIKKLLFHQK

[2] = test system: arthritic rats (collagen-induced arthritis model); assay: Collagen-induced arthritis in rats: clinical score, oedema, histology; type: in vivo, rat
Description: Male Lewis rats were immunised by intradermal injection at the base of the tail with an emulsion containing 150 μg of bovine collagen type II (bCII) in complete Freund’s adjuvant (CFA) or received an injection with incomplete Freund’s adjuvant (sham group). Three weeks after the first immunisation, animals were boosted with the same procedure. Three days after booster injection, arthritis had developed in all animals but the sham group. Oedema was assessed via plethysmometer (Ugo Basile, Varese, Italy), and the animals were then randomised to treatment groups. Oedema measurement was performed again after 7 and 14 days of treatment. Animals were blindly scored by two different investigators for clinical signs of arthritis (redness, swelling, pain of hind limb joints) as follows: 0 = normal; 1 = mild but definite redness and swelling of the ankle or wrist or individual digits, regardless of the number of affected digits; 2 = moderate redness and swelling of ankle or wrist; 3 = severe redness and swelling of the entire paw including digits; and 4 = maximally inflamed limb with involvement of multiple joints. The mean of the scores assigned by the investigators was calculated.
Three different experiments in rat CIA are reported: a dose-response study, as well as two comparative studies vs the COX-2 inhibitor rofecoxib and the Janus kinase (JAK) inhibitor tofacitinib, respectively.
Briefly, the paws were fixed in 10% neutral buffered formalin (Bio-Optica, Milan, Italy) and subsequently decalcified in EDTA for 4 weeks. Samples were dehydrated in an ethanol series and embedded in paraffin. At least three non-consecutive sections for each paw were blindly scored at the level of the tarsus, metatarsus and calcaneus for the following histological features: synovial oedema, pannus, synovial inflammatory cell infiltrate, cartilage damage, osteolysis and woven bone. Based on these histological features, a synovial score (synovial oedema, plus synovial inflammatory cell infiltrate, plus pannus), a bone score (woven bone plus osteolysis) and a total score were calculated. Two independent pathologists performed histopathology on blinded slides. The data of right and left hind limbs were summed for each rat.

[3] = test system: Ca2+ channel (L, verapamil site); assay: Ion channel Ca2+ (L, verapamil site) binding; details: up to 100µM (cell); [^3H]verapamil [^3H]D888; Rat cerebral cortex
σ (non-selective) = assay: σ receptor (non-selective) binding; details: [^3H]DTG, Rat cerebral cortex
ETA = ETA (Homo sapiens, UniProt P25101); assay: Endothelin receptor ETA binding; details: [^125I]endothelin-1, Human recombinant CHO cells, read-out: CR6086 Activity at 10µM
Sequence of ETA (P25101 21-427): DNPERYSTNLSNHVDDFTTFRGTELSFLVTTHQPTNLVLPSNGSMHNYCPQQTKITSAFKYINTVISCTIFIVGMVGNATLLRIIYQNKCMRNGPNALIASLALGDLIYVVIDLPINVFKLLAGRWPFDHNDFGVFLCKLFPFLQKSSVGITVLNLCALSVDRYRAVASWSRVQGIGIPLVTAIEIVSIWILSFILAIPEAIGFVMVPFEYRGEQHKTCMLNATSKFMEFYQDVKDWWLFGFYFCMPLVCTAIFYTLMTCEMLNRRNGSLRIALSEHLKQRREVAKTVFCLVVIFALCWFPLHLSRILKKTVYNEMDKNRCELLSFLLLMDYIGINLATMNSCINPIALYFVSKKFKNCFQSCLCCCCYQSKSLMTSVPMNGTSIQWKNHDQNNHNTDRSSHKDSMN

α2 (non-selective) = assay: Adrenergic receptor α2 binding; details: [^3H]RX 821002, Rat cerebral cortex
IL-17 release = IL-17 release from human Th17 cells; type: cell-based; details: Homo sapiens; at 1 μM; 48 and 72 h
Description: PBMCs were purified using Histopaque. CD4^+CD45^+ naive T cells were indirectly selected in a magnetic field (MACS; Miltenyi Biotec). Purified CD4^+ cells were subsequently cultured for 7 days in differentiation medium (RPMI 1640 + FBS 10%, IL-6 30 ng/ml, transforming growth factor [TGF]-β 2.25 ng/ml, IL-23 30 ng/ml, IL-1β 20 ng/ml, anti-interferon (IFN)-γ 1 ng/ml and anti-IL-4 2.5 ng/ml). Th17 cell expansion was stimulated by addition of anti-CD3/[…]anti-CD28 beads to the medium with a cell-to-beads ratio of 1:2. Th17 cells were stimulated with IL-6 30 ng/ml, TGF-β 2.25 ng/ml, IL-23 30 ng/ml, IL-1β 20 ng/ml and PGE2 10 nM for 48 h in the presence of CR6086 (0.03–10 μM) or naproxen (1–10 μM). IL-17 release was measured by ELISA (Abcam, Cambridge, UK).

5-HT3 = 5-HT3 (Homo sapiens, UniProt P46098); assay: Serotonin receptor 5-HT3 binding; details: [^3H]BRL 43694, Human recombinant CHO cells, read-out: CR6086 Activity at 10µM
Sequence of 5-HT3 (P46098 24-478): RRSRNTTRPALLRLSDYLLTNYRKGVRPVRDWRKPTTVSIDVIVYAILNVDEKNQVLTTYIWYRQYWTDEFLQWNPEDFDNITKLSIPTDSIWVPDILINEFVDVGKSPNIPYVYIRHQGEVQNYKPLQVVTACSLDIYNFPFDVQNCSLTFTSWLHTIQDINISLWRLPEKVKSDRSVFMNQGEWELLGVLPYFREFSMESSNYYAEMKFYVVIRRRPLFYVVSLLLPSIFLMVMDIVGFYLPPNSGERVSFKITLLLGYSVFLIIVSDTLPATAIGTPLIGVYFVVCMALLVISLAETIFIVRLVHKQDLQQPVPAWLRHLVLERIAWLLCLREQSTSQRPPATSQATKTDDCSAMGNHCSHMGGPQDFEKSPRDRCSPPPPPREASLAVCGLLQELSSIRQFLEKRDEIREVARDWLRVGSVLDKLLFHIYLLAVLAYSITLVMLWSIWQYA

Sequence of NK2 (P21452 whole entry): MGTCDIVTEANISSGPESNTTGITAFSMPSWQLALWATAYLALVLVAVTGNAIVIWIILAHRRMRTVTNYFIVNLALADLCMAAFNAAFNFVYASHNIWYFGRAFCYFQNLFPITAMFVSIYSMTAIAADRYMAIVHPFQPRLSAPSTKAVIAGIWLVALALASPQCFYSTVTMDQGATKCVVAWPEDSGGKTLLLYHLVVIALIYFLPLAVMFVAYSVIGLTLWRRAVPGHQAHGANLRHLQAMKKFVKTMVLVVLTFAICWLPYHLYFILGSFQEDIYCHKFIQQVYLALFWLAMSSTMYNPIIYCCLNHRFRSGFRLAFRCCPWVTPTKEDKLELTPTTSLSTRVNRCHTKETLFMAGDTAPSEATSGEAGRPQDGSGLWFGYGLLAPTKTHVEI
Sequence of NTS1 (NT1) (P30989 whole entry): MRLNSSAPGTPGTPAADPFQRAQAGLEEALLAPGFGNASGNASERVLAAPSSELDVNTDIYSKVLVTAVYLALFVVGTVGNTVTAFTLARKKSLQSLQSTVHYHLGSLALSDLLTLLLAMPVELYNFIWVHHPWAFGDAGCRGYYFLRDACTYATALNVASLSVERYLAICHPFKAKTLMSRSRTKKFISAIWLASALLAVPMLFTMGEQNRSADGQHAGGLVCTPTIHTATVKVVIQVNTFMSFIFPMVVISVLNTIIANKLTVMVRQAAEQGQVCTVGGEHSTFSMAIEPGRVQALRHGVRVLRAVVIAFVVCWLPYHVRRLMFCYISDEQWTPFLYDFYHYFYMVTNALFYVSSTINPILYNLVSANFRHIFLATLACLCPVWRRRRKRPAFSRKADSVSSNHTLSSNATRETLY

For `O=C([O-])c1ccc(C2(NC(=O)[C@H]3CC4(CCN3Cc3ccc(C(F)(F)F)cc3)CC4)CC2)cc1.[Na+]` [CR6086, Sodium (R)-4-(1-(6-(4-(trifluoromethyl)benzyl)-6-azaspiro[2.5]octane-5-carboxamido)cyclopropyl)benzoate], the inhibition at 10 µM (NK2) was less than 20%, the inhibition at 10 µM (NTS1 (NT1)) was less than 20% and the inhibition at 10 µM (CysLT2 (Cys-LTs)) was less than 20%. The inhibition at 10 µM (D3) was less than 20%, the “effect on joint histopathology” value ([1]; 16 days, 30 mg/kg CR6086, 3 mg/kg MTX, alone or combined) was “significantly improved all histological features of arthritis” and the “CLINICAL SCORE (interquartile range)” value ([1]; DAY 0) was 2.0 (2.0 – 2.0) *. For the same compound, the “CLINICAL SCORE (interquartile range)” value ([1]; DAY 1) was 2.0 (2.0 – 2.0), the “CLINICAL SCORE (interquartile range)” value ([1]; DAY 2) was 2.0 (1.0 – 2.0) and the “CLINICAL SCORE (interquartile range)” value ([1]; DAY 3) was 2.0 (1.0 – 3.1). The “CLINICAL SCORE (interquartile range)” value ([1]; DAY 4) was 2.0 (1.0 – 2.3), the “CLINICAL SCORE (interquartile range)” value ([1]; DAY 5) was 2.0 (1.3 – 2.0) and the “CLINICAL SCORE (interquartile range)” value ([1]; DAY 6) was 2.0 (2.0 – 3.0). The “CLINICAL SCORE (interquartile range)” value ([1]; DAY 7) was 2.0 (1.0 – 3.1), the “CLINICAL SCORE (interquartile range)” value ([1]; DAY 8) was 2.0 (0.5 – 3.5) and the “CLINICAL SCORE (interquartile range)” value ([1]; DAY 9) was 2.0 (1.0 – 3.3). The “CLINICAL SCORE (interquartile range)” value ([1]; DAY 10) was 2.5 (2.0 – 4.3), the “CLINICAL SCORE (interquartile range)” value ([1]; DAY 11) was 4.0 (2.0 – 5.0) and the “CLINICAL SCORE (interquartile range)” value ([1]; DAY 12) was 4.8 (2.8 – 5.1). The “CLINICAL SCORE (interquartile range)” value ([1]; DAY 13) was 4.5 (3.0 – 5.5), the “CLINICAL SCORE (interquartile range)” value ([1]; DAY 14) was 3.0 (3.0 – 4.9) and the “CLINICAL SCORE (interquartile range)” value ([1]; DAY 15) was 4.5 (3.0 – 5.0). The “CLINICAL SCORE (interquartile range)” value ([1]; DAY 16) was 2.0 (1.0 – 3.5), the inhibition at 10 µM (GR) was less than 20% and the “effect on structural and inflammatory parameters (oedema, histology)” value ([2]; 15 mg/kg once daily, 14 days) was “markedly and significantly improved all the structural and inflammatory parameters”. For the same compound, the “effect on arthritis clinical score and oedema” value ([2]; 1-10 mg/kg oral daily, 1 h and 24 h post-dosing) was “significantly and dose-dependently reduced”, the “efficacy relative to active comparators” value ([2]; CR6086 15 mg/kg once daily, rofecoxib 5–15 mg/kg once daily, tofacitinib 5–25 mg/kg twice daily) was “more effective than rofecoxib; also recorded: as effective as, but more potent than, tofacitinib” and the “dose at which efficacy plateaued” value ([2]; oral, once daily, 14 days) was “around 10 mg/kg”. For the same compound, the minimum effective dose ([2]; oral, once daily, 14 days) was 1 mg/kg, the “CR6086 Activity at 10µM” value [3] was “IN up to 100µM (IN = < 20% displacement or inhibition (all tables))” and the “CR6086 Activity at 10µM” value (σ (non-selective)) was “IN (IN = < 20% displacement or inhibition (all tables))”. For the same compound, the inhibition at 10 µM (ETA) was less than 20%, the “CR6086 Activity at 10µM” value (α2 (non-selective)) was “IN (IN = < 20% displacement or inhibition (all tables))” and the inhibition at 1 µM (IL-17 release) was 100%. For the same compound, the inhibition at 10 µM (5-HT3) was less than 20%.
